Tests used:
[1] = target: Activin receptor type-1-like (Homo sapiens) (UniProt P37023); test: ACVRL1 (ALK1) Invitrogen Lab (UK) kinase screen (BI); conditions: Compound concentration 1.0 uM
[2] = target: D(1B) dopamine receptor (Homo sapiens) (UniProt P21918); conditions: Compound concentration 10.0 uM
[3] = target: Ribosomal protein S6 kinase alpha-5 (Homo sapiens) (UniProt O75582); test: MSK1 DUNDEE kinase screen (BI); conditions: Compound concentration 10.0 uM
[4] = target: MAP kinase-interacting serine/threonine-protein kinase 2 (Homo sapiens) (UniProt Q9HBH9); test: MNK2 ALPHA DUNDEE kinase screen (BI); conditions: Compound concentration 10.0 uM
[5] = target: Serine/threonine-protein kinase PAK 3 (Homo sapiens) (UniProt O75914); conditions: Compound concentration 1.0 uM
[6] = target: Urotensin-2 receptor (Homo sapiens) (UniProt Q9UKP6); test: UROTENSIN_II Eurofins SafetyScreen44 (BI); conditions: Compound concentration 10.0 uM
[7] = target: Casein kinase I isoform delta (Homo sapiens) (UniProt P48730); conditions: Compound concentration 1.0 uM
[8] = target: AMP-activated protein kinase alpha-2/beta-1/gamma-3 (Homo sapiens) (UniProt P54646+Q9Y478+Q9UGI9); conditions: Compound concentration 1.0 uM
[9] = target: Tyrosine-protein kinase receptor TYRO3 (Homo sapiens) (UniProt Q06418); conditions: Compound concentration 1.0 uM
[10] = target: Death-associated protein kinase 3 (Homo sapiens) (UniProt O43293); conditions: Compound concentration 1.0 uM
[11] = target: Serine/threonine-protein kinase N2 (Homo sapiens) (UniProt Q16513); test: PRK2 DUNDEE kinase screen (BI); conditions: Compound concentration 10.0 uM
[12] = target: Interleukin-1 receptor-associated kinase 3 (Homo sapiens, UniProt Q9Y616); test: Dose response measurement (IRAK3)
[13] = target: Polyunsaturated fatty acid 5-lipoxygenase (Homo sapiens) (UniProt P09917); test: 5LO Eurofins SafetyScreen44 (BI); conditions: Compound concentration 10.0 uM
[14] = target: Cyclin-dependent kinase 2/cyclin A (Homo sapiens) (UniProt P24941+P20248+P78396); conditions: Compound concentration 1.0 uM
[15] = target: Misshapen-like kinase 1 (Homo sapiens) (UniProt Q8N4C8); conditions: Compound concentration 1.0 uM
[16] = target: Leukotriene C4 synthase (Cavia porcellus) (UniProt A6XA80); conditions: Compound concentration 10.0 uM
[17] = target: Cathepsin G (Homo sapiens) (UniProt P08311); test: PEPCATHEPSG Eurofins SafetyScreen44 (BI); conditions: Compound concentration 10.0 uM
[18] = target: Angiotensin-converting enzyme (Oryctolagus cuniculus) (UniProt P12822); conditions: Compound concentration 10.0 uM
[19] = target: Proto-oncogene tyrosine-protein kinase receptor Ret (Homo sapiens) (UniProt P07949); test: RET Invitrogen Lab (UK) kinase screen (BI)
[20] = target: MAP kinase-activated protein kinase 5 (Homo sapiens) (UniProt Q8IW41); test: PRAK DUNDEE kinase screen (BI); conditions: Compound concentration 10.0 uM
[21] = target: Fibroblast growth factor receptor 3 (Homo sapiens) (UniProt P22607); conditions: Compound concentration 1.0 uM
[22] = target: STE20/SPS1-related proline-alanine-rich protein kinase (Homo sapiens) (UniProt Q9UEW8); test: STK39 (STLK3) Invitrogen Lab (UK) kinase screen (BI); conditions: Compound concentration 1.0 uM
[23] = target: Dual specificity tyrosine-phosphorylation-regulated kinase 1A (Homo sapiens) (UniProt Q13627); test: DYRK1A DUNDEE kinase screen (BI); conditions: Rattus norvegicus; Compound concentration 10.0 uM
[24] = target: Vascular endothelial growth factor receptor 2 (Homo sapiens) (UniProt P35968)
[25] = target: 5-hydroxytryptamine receptor 2B (Homo sapiens) (UniProt P41595); conditions: Compound concentration 10.0 uM
[26] = system: PI3-kinase p110-alpha/p85-alpha (Homo sapiens), P27986+P42336 [E545K]; conditions: Compound concentration 1.0 uM
[27] = target: Interleukin-1 receptor-associated kinase 1 (Homo sapiens) (UniProt P51617); conditions: Compound concentration 1.0 uM
[28] = target: RAC-alpha serine/threonine-protein kinase (Homo sapiens) (UniProt P31749)
[29] = target: Dual specificity tyrosine-phosphorylation-regulated kinase 1A (Homo sapiens) (UniProt Q13627); conditions: Compound concentration 1.0 uM
[30] = target: Protein kinase C epsilon type (Homo sapiens) (UniProt Q02156); test: PRKCE Invitrogen Lab (UK) kinase screen (BI); conditions: Compound concentration 1.0 uM
[31] = target: Tyrosine-protein kinase Mer (Homo sapiens) (UniProt Q12866); conditions: Compound concentration 1.0 uM
[32] = target: CDK8/Cyclin C (Homo sapiens) (UniProt P49336+P24863); conditions: Compound concentration 1.0 uM
[33] = target: Serotonin 3 (5-HT3) receptor (Homo sapiens) (UniProt P46098+A5X5Y0+O95264+Q70Z44+Q8WXA8); test: 5HT3/HU Eurofins SafetyScreen44 (BI); type: protein-complex assay; conditions: Compound concentration 10.0 uM
[34] = target: D(3) dopamine receptor (Homo sapiens) (UniProt P35462); conditions: Compound concentration 10.0 uM
[35] = target: Calcium/calmodulin-dependent protein kinase type IV (Homo sapiens) (UniProt Q16566); test: CAMK4 Invitrogen Lab (UK) kinase screen (BI); conditions: Compound concentration 1.0 uM
[36] = target: Acetylcholinesterase (Homo sapiens) (UniProt P22303); conditions: Compound concentration 10.0 uM
[37] = target: Wee1-like protein kinase (Homo sapiens) (UniProt P30291); conditions: Compound concentration 1.0 uM
[38] = target: Serine/threonine-protein kinase SIK2 (Homo sapiens) (UniProt Q9H0K1); test: SNF1LK2 Invitrogen Lab (UK) kinase screen (BI); conditions: Compound concentration 1.0 uM
[39] = target: CDK2/Cyclin A1 (Homo sapiens) (UniProt P24941+P78396); test: CDK2/CYCLIN A1 Invitrogen Lab (UK) kinase screen (BI); type: protein-complex assay; conditions: Compound concentration 1.0 uM
[40] = target: Voltage-dependent L-type calcium channel subunit alpha-1C (CA+/PAASITE) (Rattus norvegicus, UniProt P22002); test: CA+/PAASITE Eurofins SafetyScreen44 (BI); conditions: read-out: % Ctrl
[41] = target: Sodium-dependent noradrenaline transporter (Homo sapiens) (UniProt P23975); test: NETRANS/H Eurofins SafetyScreen44 (BI); conditions: Compound concentration 10.0 uM
[42] = target: Mitogen-activated protein kinase 14 (Homo sapiens) (UniProt Q16539); conditions: Compound concentration 1.0 uM

Sequence of Vascular endothelial growth factor receptor 2 (Homo sapiens) (P35968 whole entry): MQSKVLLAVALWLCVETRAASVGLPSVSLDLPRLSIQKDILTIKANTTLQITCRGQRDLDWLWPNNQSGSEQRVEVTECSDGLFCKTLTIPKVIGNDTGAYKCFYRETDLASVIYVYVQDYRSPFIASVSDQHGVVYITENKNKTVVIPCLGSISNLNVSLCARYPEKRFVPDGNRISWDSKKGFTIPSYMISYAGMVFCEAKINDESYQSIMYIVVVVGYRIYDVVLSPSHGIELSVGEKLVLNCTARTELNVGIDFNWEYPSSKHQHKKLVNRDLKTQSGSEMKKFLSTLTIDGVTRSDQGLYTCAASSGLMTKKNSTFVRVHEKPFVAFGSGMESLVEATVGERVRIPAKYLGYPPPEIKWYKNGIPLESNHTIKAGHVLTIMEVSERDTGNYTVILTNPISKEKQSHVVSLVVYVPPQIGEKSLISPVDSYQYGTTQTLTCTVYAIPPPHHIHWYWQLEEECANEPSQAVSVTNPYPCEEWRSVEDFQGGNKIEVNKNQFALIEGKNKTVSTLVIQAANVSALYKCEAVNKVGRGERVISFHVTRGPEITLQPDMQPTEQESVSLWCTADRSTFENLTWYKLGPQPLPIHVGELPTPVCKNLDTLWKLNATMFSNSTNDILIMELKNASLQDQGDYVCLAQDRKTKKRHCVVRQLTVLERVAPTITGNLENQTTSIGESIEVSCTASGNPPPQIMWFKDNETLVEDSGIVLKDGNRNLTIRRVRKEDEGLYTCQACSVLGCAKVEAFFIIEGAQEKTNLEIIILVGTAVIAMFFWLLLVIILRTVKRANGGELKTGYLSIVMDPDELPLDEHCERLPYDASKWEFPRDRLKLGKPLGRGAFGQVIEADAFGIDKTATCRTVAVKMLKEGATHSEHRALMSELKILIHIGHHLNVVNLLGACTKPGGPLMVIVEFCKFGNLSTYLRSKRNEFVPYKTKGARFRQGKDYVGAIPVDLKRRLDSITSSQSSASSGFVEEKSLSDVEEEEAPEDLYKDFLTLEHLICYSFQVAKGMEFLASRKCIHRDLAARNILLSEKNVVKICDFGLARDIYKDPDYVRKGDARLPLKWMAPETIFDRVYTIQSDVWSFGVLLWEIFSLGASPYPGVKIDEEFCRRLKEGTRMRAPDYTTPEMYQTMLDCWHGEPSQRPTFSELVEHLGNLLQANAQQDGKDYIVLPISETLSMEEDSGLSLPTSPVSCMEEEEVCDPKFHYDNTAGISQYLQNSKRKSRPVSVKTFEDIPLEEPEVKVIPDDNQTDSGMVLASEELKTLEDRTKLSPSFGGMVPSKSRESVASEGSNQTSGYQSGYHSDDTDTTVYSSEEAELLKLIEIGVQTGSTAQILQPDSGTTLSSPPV
Sequence of RAC-alpha serine/threonine-protein kinase (Homo sapiens) (P31749 whole entry): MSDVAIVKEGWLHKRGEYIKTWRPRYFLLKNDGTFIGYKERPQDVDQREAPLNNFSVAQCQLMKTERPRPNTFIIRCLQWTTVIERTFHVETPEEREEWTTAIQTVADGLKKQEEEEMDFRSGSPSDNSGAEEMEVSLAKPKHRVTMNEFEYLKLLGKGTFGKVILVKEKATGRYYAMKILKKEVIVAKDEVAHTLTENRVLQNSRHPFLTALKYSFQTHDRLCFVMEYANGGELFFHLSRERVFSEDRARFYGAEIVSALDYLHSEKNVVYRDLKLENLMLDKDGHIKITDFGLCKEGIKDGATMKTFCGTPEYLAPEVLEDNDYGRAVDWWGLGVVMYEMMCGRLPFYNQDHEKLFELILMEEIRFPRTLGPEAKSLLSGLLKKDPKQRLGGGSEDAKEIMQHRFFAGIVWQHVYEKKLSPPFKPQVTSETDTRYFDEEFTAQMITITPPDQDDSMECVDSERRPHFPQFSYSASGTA
Sequence of Voltage-dependent L-type calcium channel subunit alpha-1C (CA+/PAASITE) (P22002 whole entry): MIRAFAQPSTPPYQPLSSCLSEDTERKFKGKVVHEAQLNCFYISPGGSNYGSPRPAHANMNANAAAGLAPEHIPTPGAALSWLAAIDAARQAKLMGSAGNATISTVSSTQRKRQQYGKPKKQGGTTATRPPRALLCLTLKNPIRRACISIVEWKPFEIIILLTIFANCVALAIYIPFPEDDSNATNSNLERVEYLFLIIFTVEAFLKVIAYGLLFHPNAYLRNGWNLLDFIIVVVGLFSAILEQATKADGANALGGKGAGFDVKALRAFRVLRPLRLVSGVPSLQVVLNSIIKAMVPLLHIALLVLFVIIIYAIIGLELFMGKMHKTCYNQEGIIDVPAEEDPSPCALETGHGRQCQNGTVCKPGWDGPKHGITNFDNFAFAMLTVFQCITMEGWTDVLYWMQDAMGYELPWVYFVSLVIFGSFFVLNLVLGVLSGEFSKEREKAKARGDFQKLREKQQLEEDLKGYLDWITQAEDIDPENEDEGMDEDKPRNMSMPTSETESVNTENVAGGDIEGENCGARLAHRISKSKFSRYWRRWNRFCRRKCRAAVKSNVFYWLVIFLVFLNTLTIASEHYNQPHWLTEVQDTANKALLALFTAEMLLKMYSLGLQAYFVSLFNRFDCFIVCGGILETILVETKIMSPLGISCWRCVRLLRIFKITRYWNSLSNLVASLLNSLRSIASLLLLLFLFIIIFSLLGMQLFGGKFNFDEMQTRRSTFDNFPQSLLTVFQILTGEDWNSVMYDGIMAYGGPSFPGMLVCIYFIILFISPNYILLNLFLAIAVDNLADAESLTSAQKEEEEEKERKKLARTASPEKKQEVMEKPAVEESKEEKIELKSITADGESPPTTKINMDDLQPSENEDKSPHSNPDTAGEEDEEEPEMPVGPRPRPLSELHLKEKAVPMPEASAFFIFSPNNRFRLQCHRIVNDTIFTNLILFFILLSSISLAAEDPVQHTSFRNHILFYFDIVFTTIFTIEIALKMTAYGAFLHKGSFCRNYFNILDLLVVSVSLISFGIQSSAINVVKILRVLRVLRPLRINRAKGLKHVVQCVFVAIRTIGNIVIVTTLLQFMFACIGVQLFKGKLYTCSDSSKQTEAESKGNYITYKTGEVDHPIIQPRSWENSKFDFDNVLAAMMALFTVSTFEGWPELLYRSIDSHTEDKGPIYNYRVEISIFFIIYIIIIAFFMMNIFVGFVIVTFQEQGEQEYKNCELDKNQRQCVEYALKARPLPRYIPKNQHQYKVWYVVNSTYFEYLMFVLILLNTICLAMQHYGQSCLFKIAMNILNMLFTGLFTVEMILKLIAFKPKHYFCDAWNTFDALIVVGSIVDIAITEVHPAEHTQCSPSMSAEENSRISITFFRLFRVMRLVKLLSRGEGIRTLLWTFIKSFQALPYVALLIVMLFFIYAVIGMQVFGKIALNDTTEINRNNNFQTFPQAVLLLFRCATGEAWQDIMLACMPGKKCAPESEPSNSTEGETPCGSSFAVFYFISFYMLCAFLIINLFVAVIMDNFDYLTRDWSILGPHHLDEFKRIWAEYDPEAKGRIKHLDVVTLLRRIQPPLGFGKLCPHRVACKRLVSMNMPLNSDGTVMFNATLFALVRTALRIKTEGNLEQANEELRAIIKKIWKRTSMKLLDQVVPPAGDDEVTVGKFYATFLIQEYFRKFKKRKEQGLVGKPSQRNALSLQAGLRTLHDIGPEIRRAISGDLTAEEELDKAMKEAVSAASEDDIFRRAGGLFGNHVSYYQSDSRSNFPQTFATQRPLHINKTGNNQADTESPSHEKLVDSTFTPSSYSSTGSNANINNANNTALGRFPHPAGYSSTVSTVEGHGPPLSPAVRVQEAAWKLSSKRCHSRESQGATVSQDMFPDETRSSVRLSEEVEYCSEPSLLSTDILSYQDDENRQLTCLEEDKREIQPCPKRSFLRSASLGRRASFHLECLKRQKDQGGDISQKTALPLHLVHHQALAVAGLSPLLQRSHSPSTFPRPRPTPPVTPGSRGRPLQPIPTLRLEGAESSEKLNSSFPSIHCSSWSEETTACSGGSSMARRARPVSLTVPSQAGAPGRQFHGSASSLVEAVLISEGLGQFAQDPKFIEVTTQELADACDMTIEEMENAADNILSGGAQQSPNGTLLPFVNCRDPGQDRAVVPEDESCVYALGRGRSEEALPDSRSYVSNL
Sequence of Proto-oncogene tyrosine-protein kinase receptor Ret (Homo sapiens) (P07949 whole entry): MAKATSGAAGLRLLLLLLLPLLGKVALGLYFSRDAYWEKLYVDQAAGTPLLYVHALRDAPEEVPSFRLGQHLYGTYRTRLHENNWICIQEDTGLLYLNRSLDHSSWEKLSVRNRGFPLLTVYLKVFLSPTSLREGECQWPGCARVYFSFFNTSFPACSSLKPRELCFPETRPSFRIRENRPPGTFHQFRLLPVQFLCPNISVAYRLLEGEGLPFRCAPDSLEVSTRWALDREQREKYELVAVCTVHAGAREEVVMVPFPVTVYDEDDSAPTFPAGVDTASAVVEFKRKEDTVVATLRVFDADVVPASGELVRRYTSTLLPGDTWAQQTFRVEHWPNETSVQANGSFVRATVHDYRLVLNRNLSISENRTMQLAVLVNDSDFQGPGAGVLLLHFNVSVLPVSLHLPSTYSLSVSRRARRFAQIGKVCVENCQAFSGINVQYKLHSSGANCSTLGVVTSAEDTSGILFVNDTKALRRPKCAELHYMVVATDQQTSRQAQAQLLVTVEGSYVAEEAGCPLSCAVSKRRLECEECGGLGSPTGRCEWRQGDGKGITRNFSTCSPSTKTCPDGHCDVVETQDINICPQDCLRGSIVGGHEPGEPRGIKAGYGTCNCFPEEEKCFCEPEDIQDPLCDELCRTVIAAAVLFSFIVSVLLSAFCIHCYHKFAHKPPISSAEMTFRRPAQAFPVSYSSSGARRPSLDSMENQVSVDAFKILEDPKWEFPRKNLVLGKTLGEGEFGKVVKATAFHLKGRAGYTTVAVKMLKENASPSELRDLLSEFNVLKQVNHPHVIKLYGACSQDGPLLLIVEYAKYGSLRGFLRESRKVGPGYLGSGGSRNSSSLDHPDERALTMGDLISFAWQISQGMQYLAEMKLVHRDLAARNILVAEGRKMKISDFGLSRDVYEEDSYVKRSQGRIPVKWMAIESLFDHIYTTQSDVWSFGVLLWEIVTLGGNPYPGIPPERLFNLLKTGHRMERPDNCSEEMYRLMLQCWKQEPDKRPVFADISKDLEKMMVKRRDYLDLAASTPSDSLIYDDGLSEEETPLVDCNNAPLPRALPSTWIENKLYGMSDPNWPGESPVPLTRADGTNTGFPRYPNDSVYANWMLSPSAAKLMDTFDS

Structure (SMILES): CCC(F)(F)c1cc(N2CCC(S(C)(=O)=O)CC2)nc2sc(C(N)=O)c(N)c12 [BI-605906]
- residual activity [1]: 64%
- inhibition [2]: 2.13%
- residual activity [3]: 86.6%
- residual activity [4]: 67.2%
- residual activity [5]: 101%
- residual activity [6]: 107%
- residual activity [7]: 100%
- residual activity [8]: 89%
- residual activity [9]: 94%
- residual activity [10]: 101%
- residual activity [11]: 46.4%
- IC50 [12]: 921 nM (not active)
- residual activity [13]: 53%
- residual activity [14]: 90%
- residual activity [15]: 96%
- residual activity [16]: 93%
- residual activity [17]: 106%
- residual activity [18]: 98%
- residual activity ([19]; Compound concentration 1.0 uM): 60%
- residual activity ([19]; Compound concentration 10.0 uM): 32%
- residual activity [20]: 61.1%
- residual activity [21]: 96%
- residual activity [22]: 88%
- residual activity [23]: 74.9%
- residual activity ([24]; Compound concentration 1.0 uM): 98%
- residual activity ([24]; Compound concentration 10.0 uM): 79%
- inhibition [25]: 13.4%
- residual activity [26]: 100%
- residual activity [27]: 89%
- residual activity ([28]; Compound concentration 1.0 uM): 99%
- residual activity ([28]; Compound concentration 10.0 uM): 96%
- residual activity [29]: 91%
- residual activity [30]: 127%
- residual activity [31]: 93%
- residual activity [32]: 82%
- residual activity [33]: 84%
- residual activity [34]: 105%
- residual activity [35]: 103%
- residual activity [36]: 87%
- residual activity [37]: 82%
- residual activity [38]: 84%
- residual activity [39]: 80%
- activity at 10 µM ([40]; compound concentration 10 uM): 99% (not active)
- activity at 100 µM ([40]; compound concentration 100 uM): 70% (not active)
- residual activity [41]: 112%
- residual activity [42]: 89%
